According to US12398154B2, “Azaquinazoline pan-KRas inhibitors” (Mirati Therapeutics, Inc., priority 2020, dated 2025):
pIC50: −log10 of the molar value.

How the values were obtained:
Assay in all cases: biochemical
[1] = biological target: KRas G12D (Homo sapiens, UniProt P01116, G12D);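 also: TR-FRET displacement binding assay on KRas, read after a one-hour incubation at room temperature, IC50 fitted from percent-of-control values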
Protocol: (§1) The ability of a compound to bind to KRas was measured using a TR-FRET displacement assay. […] After a 60-minute incubation at room temperature, the reaction was measured using a BMG LABTECH CLARIO star Plus via TR-FRET. […] The POC values were fit to a 4-parameter IC50 equation and the IC50 value reported.

[2] = biological target: KRas G12C (Homo sapiens, UniProt P01116, G12C);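 also: binding to KRas assessed by TR-FRET displacement after one hour incubation at room temperature, potency fitted from percent-of-control values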
Protocol: as §1

[3] = biological target: KRas G12V (Homo sapiens, UniProt P01116, G12V);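 also: KRas binding measured by TR-FRET displacement at room temperature, IC50 fitted from percent of control values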
Protocol: as §1

[4] = biological target: KRas G12R (Homo sapiens, UniProt P01116, G12R);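 also: TR-FRET displacement assay of compound binding to KRas, read after one hour at room temperature, potency from a four-parameter fit of percent-of-control values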
Sequence of KRas G12R (P01116 1-169 isoform P01116-2 G12R): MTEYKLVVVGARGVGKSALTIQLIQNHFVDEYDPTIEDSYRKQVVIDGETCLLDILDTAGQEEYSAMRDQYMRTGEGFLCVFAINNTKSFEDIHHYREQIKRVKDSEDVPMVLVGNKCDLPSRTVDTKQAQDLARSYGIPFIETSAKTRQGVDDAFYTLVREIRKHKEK
Protocol: as §1

Sequence of KRas G12V (P01116 1-169 isoform P01116-2 G12V): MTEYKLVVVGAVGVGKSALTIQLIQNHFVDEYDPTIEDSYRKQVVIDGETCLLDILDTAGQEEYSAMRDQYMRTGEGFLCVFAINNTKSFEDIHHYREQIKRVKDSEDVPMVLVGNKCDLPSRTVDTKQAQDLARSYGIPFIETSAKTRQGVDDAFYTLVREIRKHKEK
Sequence of KRas G12C (P01116 1-169 isoform P01116-2 G12C): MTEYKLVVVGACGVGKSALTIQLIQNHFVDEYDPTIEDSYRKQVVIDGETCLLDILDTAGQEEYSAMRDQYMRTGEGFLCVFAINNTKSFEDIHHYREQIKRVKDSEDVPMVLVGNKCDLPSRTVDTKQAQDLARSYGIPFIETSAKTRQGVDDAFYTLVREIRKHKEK
Sequence of KRas G12D (P01116 1-169 isoform P01116-2 G12D): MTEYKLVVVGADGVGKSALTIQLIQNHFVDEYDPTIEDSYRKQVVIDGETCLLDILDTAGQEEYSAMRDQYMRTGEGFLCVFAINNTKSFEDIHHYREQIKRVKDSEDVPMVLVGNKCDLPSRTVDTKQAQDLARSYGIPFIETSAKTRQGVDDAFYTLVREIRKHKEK

Compound	pIC50 [1]	pIC50 [2]	pIC50 [3]	pIC50 [4]
CC1(O)CCCCN(c2nc(OCC34CCCN3CCC4)nc3c(F)c(-c4cccc5cccc(F)c45)ncc23)C1 (stereo not drawn) [Example 65, 1-(8-fluoro-7-(8-fluoronaphthalen-1-yl)-2-((hexahydro-1H-pyrrolizin-7a-yl)methoxy)pyrido[4,3-d]pyrimidin-4-yl)-3-methylazepan-3-ol]	4.85	4.68	4.82	4.35
OC1CCCN(c2nc(OCC34CCCN3CCC4)nc3c(F)c(-c4cccc5cccc(F)c45)ncc23)C1 (stereo not drawn) [Example 23, 1-(8-fluoro-7-(8-fluoronaphthalen-1-yl)-2-((hexahydro-1H-pyrrolizin-7a-yl)methoxy)pyrido[4,3-d]pyrimidin-4-yl)piperidin-3-ol]	5.28	5.32	5.37	5.21
C#Cc1cccc2cccc(-c3ncc4c(N5CCCC(C)(O)C5)nc(OCC56CCCN5CCC6)nc4c3F)c12 (stereo not drawn) [Example 55]	6.86	6.53	6.67	6.39
CC1(O)CCCN(c2nc(OCC34CCCN3CCC4)nc3c(F)c(-c4cccc5sc(N)nc45)ncc23)C1 (stereo not drawn) [Example 67, 1-(7-(2-aminobenzo[d]thiazol-4-yl)-8-fluoro-2-((hexahydro-1H-pyrrolizin-7a-yl)methoxy)pyrido[4,3-d]pyrimidin-4-yl)-3-methylpiperidin-3-ol]	4.98	4.85	4.94	4.79
CC1CCCN(c2nc(OCC34CCCN3CCC4)nc3c(F)c(-c4cccc5cccc(F)c45)ncc23)C1 (stereo not drawn) [Example 22, 8-fluoro-7-(8-fluoronaphthalen-1-yl)-2-((hexahydro-1H-pyrrolizin-7a-yl)methoxy)-4-(3-methylpiperidin-1-yl)pyrido[4,3-d]pyrimidine]	5.00	4.21	4.92	4.83
Fc1c(-c2cccc3cccc(F)c23)ncc2c(N3CC(n4ccnc4)C3)nc(OCC34CCCN3CCC4)nc12 [Example 75, 4-(3-(1H-imidazol-1-yl)azetidin-1-yl)-8-fluoro-7-(8-fluoronaphthalen-1-yl)-2-((hexahydro-1H-pyrrolizin-7a-yl)methoxy)pyrido[4,3-d]pyrimidine]	4.20	5.74	5.62	6.01
O=C1CC2(CCCN(c3nc(OCC45CCCN4CCC5)nc4c(F)c(-c5cccc6cccc(CO)c56)ncc34)C2)N1 (stereo not drawn) [Example 433, 6-(8-fluoro-2-((hexahydro-1H-pyrrolizin-7a-yl)methoxy)-7-(8-(hydroxymethyl)naphthalen-1-yl)pyrido[4,3-d]pyrimidin-4-yl)-1,6-diazaspiro[3.5]nonan-2-one]	5.06		5.00	4.81
OC[C@@H]1CCCN(c2nc(OCC34CCCN3CCC4)nc3c(F)c(-c4cccc5cccc(F)c45)ncc23)C1 [Example 268, (R)-(1-(8-fluoro-7-(8-fluoronaphthalen-1-yl)-2-((hexahydro-1H-pyrrolizin-7a-yl)methoxy)pyrido[4,3-d]pyrimidin-4-yl)piperidin-3-yl)methanol]	4.95		5.19	5.05
NC(=O)NC1CCCN(c2nc(OCC34CCCN3CCC4)nc3c(F)c(-c4cccc5cccc(F)c45)ncc23)C1 (stereo not drawn) [Example 241, 1-(1-(8-fluoro-7-(8-fluoronaphthalen-1-yl)-2-((hexahydro-1H-pyrrolizin-7a-yl)methoxy)pyrido[4,3-d]pyrimidin-4-yl)piperidin-3-yl)urea]	4.77		4.87	5.06
Fc1c(-c2cccc3cccc(F)c23)ncc2c(N3CCCC4CCCC43)nc(OCC34CCCN3CCC4)nc12 (stereo not drawn) [Example 32, 8-fluoro-7-(8-fluoronaphthalen-1-yl)-2-((hexahydro-1H-pyrrolizin-7a-yl)methoxy)-4-(octahydro-1H-cyclopenta[b]pyridin-1-yl)pyrido[4,3-d]pyrimidine]	4.01		≤ 4.00	4.06
OC1CCN(c2nc(OCC34CCCN3CCC4)nc3c(F)c(-c4cccc5cccc(F)c45)ncc23)CC1 [Example 11, 1-(8-fluoro-7-(8-fluoronaphthalen-1-yl)-2-((hexahydro-1H-pyrrolizin-7a-yl)methoxy)pyrido[4,3-d]pyrimidin-4-yl)piperidin-4-ol]	4.81		4.68	4.40
CCc1c(F)ccc2cc(O)cc(-c3ncc4c(NCC5(O)CCCCC5)nc(OC[C@@]56CCCN5C[C@H](F)C6)nc4c3F)c12 [Example 52, 5-ethyl-6-fluoro-4-(8-fluoro-2-(((2R,7aS)-2-fluorohexahydro-1H-pyrrolizin-7a-yl)methoxy)-4-(((1-hydroxycyclohexyl)methyl)amino)pyrido[4,3-d]pyrimidin-7-yl)naphthalen-2-ol]	6.63		7.60	7.41
OC1CCC2(CCCN(c3nc(OCC45CCCN4CCC5)nc4c(F)c(-c5cccc6cccc(F)c56)ncc34)C2)C1 (stereo not drawn) [Example 47, 7-(8-fluoro-7-(8-fluoronaphthalen-1-yl)-2-((hexahydro-1H-pyrrolizin-7a-yl)methoxy)pyrido[4,3-d]pyrimidin-4-yl)-7-azaspiro[4.5]decan-2-ol]	4.20		4.15	≤ 4.00
CN(C)c1cc2n(n1)CCCN(c1nc(OCC34CCCN3CCC4)nc3c(F)c(-c4cccc5cccc(F)c45)ncc13)C2 [Example 264, 5-(8-fluoro-7-(8-fluoronaphthalen-1-yl)-2-((hexahydro-1H-pyrrolizin-7a-yl)methoxy)pyrido[4,3-d]pyrimidin-4-yl)-N,N-dimethyl-5,6,7,8-tetrahydro-4H-pyrazolo[1,5-a][1,4]diazepin-2-amine]	5.09		4.87	5.01
NS(=O)(=O)OC1CCCN(c2nc(OCC34CCCN3CCC4)nc3c(F)c(-c4cccc5cccc(F)c45)ncc23)C1 (stereo not drawn) [Example 248, 1-(8-fluoro-7-(8-fluoronaphthalen-1-yl)-2-((tetrahydro-1H-pyrrolizin-7a(5H)-yl)methoxy)pyrido[4,3-d]pyrimidin-4-yl)piperidin-3-yl sulfamate]	5.17		5.01	4.98
CN1CCC[C@H]1COc1nc(N2CCOCC2)c2cnc(-c3cc(O)cc4ccccc34)c(F)c2n1 [Example 195, (S)-4-(8-fluoro-2-((1-methylpyrrolidin-2-yl)methoxy)-4-morpholinopyrido[4,3-d]pyrimidin-7-yl)naphthalen-2-ol]	4.78		5.31	5.77
CCc1c(F)ccc2cc(O)cc(-c3ncc4c(N(C)Cc5cn[nH]c5)nc(OC[C@@]56CCCN5C[C@H](F)C6)nc4c3F)c12 [Example 163, 4-(4-(((1H-pyrazol-4-yl)methyl)(methyl)amino)-8-fluoro-2-(((2R,7aS)-2-fluorohexahydro-1H-pyrrolizin-7a-yl)methoxy)pyrido[4,3-d]pyrimidin-7-yl)-5-ethyl-6-fluoronaphthalen-2-ol]	7.02		7.85	7.77
CCc1cccc2cccc(-c3ncc4c(N5CCCC(C)(O)C5)nc(OCC56CCCN5CCC6)nc4c3F)c12 (stereo not drawn) [Example 54, 1-(7-(8-ethylnaphthalen-1-yl)-8-fluoro-2-((hexahydro-1H-pyrrolizin-7a-yl)methoxy)pyrido[4,3-d]pyrimidin-4-yl)-3-methylpiperidin-3-ol]	6.79		6.49	6.28
